Reference: patent publication US20020081566A1, “HIV PROTEIN EPITOPES IMMUNOLOGICALLY HOMOLOGOUS TO HLA” (priority 1992, published 2002)

Key:
viral gp160 = molecular target: T1, viral gp160 (Human immunodeficiency virus type 1 group M subtype B, UniProt P03377); assay type: binding, HIV; conditions: for binding to viral gp160 of AIDS serum antibodies pre-adsorbed on the peptide and eluted: sera from AIDS affected subjects, HIV western blot stripes, FIGS. 5 and 6; for reactivity of sera / antibodies raised against native gp160 in HIV positive subjects with the peptide region: sera from HIV positive subjects
T1 construct: purchased SORIN BIOMEDICA, Saluggia, Italy
Description: Sera from AIDS affected subjects are immunoadsorbed on columns of either S. MAP HIV, or MAP HLA 11 or MAP HLA 12 peptide coupled Sepharose (CNBR activated sepharose 4B from […]) and eluted. 1 ml of Sepharose/peptide equilibrated with 0.1 M TRIS HCl pH 8 and 0.5 M NaCl buffer is incubated for 16 hours with 100 μl of serum, washed with 0.1 M TRIS HCl ph 8 and 0.5 M NaCl. The bound antibodies are eluted with a buffer containing 0.2 M glycine pH 2 and 0.5 M NaCl. The eluted antibodies are assayed on HIV western blot commercial stripes (SORIN BIOMEDICA, Saluggia, Italy) and detected using the chemio-luminescence system from […]. […] Lane M is obtained from one of the “in toto” sera and used as control.
The same test is carried out using two sera of AIDS affected patients (FIG. 6), pre-adsorbed with the S. MAP HIV peptide (lanes A and B) or with the HIV 9 peptide (lanes C and D), and eluted.

[1] = molecular target: recombinant gp160 protein (Human immunodeficiency virus type 1 group M subtype B, UniProt P03377); conditions: BALB/c female mice, subcutaneous, Freund's incomplete adjuvant, after third immunization; compared with control peptide serum (NMS); FIG. 1
Description: S.MAP HIV and S. MAP HLA peptides are injected subcutaneously to BALB/c female mice together with Freund's incomplete adjuvant. After the third immunization (for a total of three immunizations at three week intervals) mice sera are tested by an ELISA assay with the recombinant gp160 protein (from Transgene, Strasbourg) as follows: microtiter plastic wells (NUNC) are coated with 0.2 μg of protein resuspended in phospahte buffer pH 9, for 1.5 hours at 37° C., followed by washing with phosphate buffer pH 7, and by further incubating for 1 hour at 37° C. with bovine serum albumin (BSA, 1 mg/ml), to saturate the free sites of solid phase. After three washings, diluted sera in PBS, comprising BSA 1% w/v, are incubated with the coated wells for 1 hour at 37° C. After five washings in PBS, a rabbit anti-mouse Igs serum (SIGMA), 1/1000 diluted, is added. After 45 min. incubation at 37° C., wells are washed five times and 100 μl of chromogen substrate is added to each well (SORIN BIOMEDICA, Saluggia, Italy). The adsorbance is read with an automatic ELISA reader (BIORAD).

[2] = tested on: syncytium between HIV infected 8E51 LAV cells and not infected CD4+ MOLT3 cells; experiment: Syncytium formation inhibition assay; assay type: cell-based; conditions: mice sera; pre-immunization sera as specificity control; FIG. 9
Description: In order to check the ability to neutralize the viral infection of sera raised against the HLA homologous regions, mice sera are prepared by immunization with either S. MAP HLA or S. MAP HIV peptides. Sera are assayed for antibody ability to inhibit syncytium cells between HIV infected cells (8E51 LAV cells, AIDS Repository National Insitute of Health, Bethesda, Md. USA, “Journ. Exp. Medicine, 164, 280, 1986) and not infected, CD4+ cells (MOLT3 cells, AIDS Repository National Institute of Health, Bethesda, Md., USA). The syncytiums are counted at the optical microscope and the inhibition percentages are evaluated with reference to syncytiums in a control antibody-free cell culture. As specifity control, sera of mice before immunization are used.

T1 sequence (P03377 33-861): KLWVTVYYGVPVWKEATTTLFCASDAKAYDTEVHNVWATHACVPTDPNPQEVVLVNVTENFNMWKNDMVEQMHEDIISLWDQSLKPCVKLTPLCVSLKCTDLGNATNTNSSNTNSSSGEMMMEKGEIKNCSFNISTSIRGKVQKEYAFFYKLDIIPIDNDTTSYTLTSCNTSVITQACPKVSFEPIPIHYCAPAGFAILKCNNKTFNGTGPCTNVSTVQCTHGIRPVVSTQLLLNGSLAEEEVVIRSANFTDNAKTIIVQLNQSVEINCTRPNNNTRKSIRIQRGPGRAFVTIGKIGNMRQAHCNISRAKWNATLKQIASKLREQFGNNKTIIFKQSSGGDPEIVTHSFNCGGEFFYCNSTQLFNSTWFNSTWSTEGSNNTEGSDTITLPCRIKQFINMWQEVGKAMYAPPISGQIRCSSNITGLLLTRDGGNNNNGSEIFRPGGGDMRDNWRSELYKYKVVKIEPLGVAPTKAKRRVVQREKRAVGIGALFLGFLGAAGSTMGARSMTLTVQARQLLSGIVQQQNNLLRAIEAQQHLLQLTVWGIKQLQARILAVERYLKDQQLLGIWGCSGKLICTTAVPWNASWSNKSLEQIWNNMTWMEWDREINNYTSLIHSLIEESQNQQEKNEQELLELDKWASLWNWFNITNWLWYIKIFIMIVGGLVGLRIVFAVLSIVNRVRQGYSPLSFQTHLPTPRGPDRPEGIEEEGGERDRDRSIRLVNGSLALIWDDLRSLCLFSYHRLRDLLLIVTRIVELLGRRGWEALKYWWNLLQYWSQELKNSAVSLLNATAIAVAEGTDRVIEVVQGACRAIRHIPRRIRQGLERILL
recombinant gp160 protein, sequence (P03377 33-861): as above

| Sequence | binding to viral gp160 of AIDS serum antibodies pre-adsorbed on the peptide and eluted (viral gp160) | reactivity of sera / antibodies raised against native gp160 in HIV positive subjects with the peptide region (viral gp160) | further results |
| --- | --- | --- | --- |
| IEPLGVAPT [MAP HIV 9] | do not show any reactivity | none of sera from HIV positive subjects are reactive | – |
| NLRKLRGYY [MAP HLA 12] | bind similarly to the viral gp160 | – | binding to a 45 KD protein (likely HLA heavy chains) of AIDS serum antibodies pre-adsorbed on the peptide (viral gp160; one serum, lane E, FIG. 5): also bind to a 45 KD protein |
| PTKAKRRVV [MAP HIV 12] | – | react | – |
| SELYKYKVVK [MAP HIV 11] | – | react | – |
| SELYKYKVVKIEPLGVAPTKAKRRVV [S. MAP HIV] | bind similarly to the viral gp160 | – | reaction of sera of peptide immunized mice with the recombinant gp160 protein [1]: react at significantly higher level; neutralization of viral fusion (syncytium inhibition) by antibodies of mice immunized with the peptide [2]: ability to neutralize the viral fusion |
| TQKYKRQAQ [MAP HLA 11] | bind similarly to the viral gp160 | – | – |
| TQKYKRQAQADRVNLRKLRGYY [S. MAP HLA, synthetic peptide from HLA class I heavy chain α-1 domain, allele Cw4] | – | – | reaction of sera of peptide immunized mice with the recombinant gp160 protein [1]: react specifically; neutralization of viral fusion (syncytium inhibition) by antibodies of mice immunized with the peptide [2]: same ability to neutralize the viral fusion |
